In the supplement of paper PMC10949913:

What was measured:
Assay in all cases: area under concentration-response curve (viability) (AUC (a.u.)); higher = less active
Settings in all cases: 48 h
[1] = test system: CU-ACC1
How it was run: (§1)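 Library compounds were dispensed at 11 concentrations (23 nL each) onto three adrenocortical carcinoma cell lines in 1,536-well plates. Luminescence was recorded after 48 h using CellTiter-Glo, and signals were normalised per plate to vehicle and empty-well controls. Fitted concentration-response curves of inhibitory or non-responding classes only supplied the AC50 and area under the curve.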

[2] = test system: CU-ACC2
How it was run: as §1

[3] = test system: NCI-H295R
How it was run: as §1

Compound | area under concentration-response curve [1] | area under concentration-response curve [2] | area under concentration-response curve [3]
Cc1nc2c([nH]1)-c1ccccc1N(C(=O)c1ccc(NC(=O)c3ccccc3-c3ccccc3)cc1)CC2 | 437 | 542 | 487
N=C(N)NC(=N)NCCc1ccccc1 | 525 | 626 | 573
Nc1ncnc2nc(-c3ccc(N4CCOCC4)nc3)cc(-c3cccc(Br)c3)c12 | 492 | 525 | 459
CN(C)[C@H]\1[C@@H]2C[C@@H]\3CC4=C(C(=C(NC(=O)CNC(C)(C)C)C=C4N(C)C)O)C(=O)C3=C(O)/[C@@]2(O)C(=O)\C(=C1O)C(N)=O | 380 | 452 | 379
CC1SC/2=C(C(O)=O)/C(=O)C3=CC(=C(C=C3N12)N4CCN(CC4)C\C5=C(C)\OC(=O)O5)F (centres undefined) | 586 | 612 | 565
CN(C)[C@H]\1[C@@H]2[C@@H](O)[C@H]3\C(=C(O)/[C@]2(O)C(=O)\C(=C1O)C(N)=O)C(=O)C4=C(C=CC=C4O)[C@@]3(C)O | 593 | 625 | 530
C[S+]([O-])(=O)C1=CC=C(C=C1)C/2=C(/C(=O)OC2)C3=CC=CC=C3 | 407 | 467 | 424
C[C@@H](CN1CC(=O)NC(=O)C1)N1CC(=O)NC(=O)C1 | 516 | 588 | 478
Cc1cnc(Nc2cccc(CN3CCOCC3)c2)nc1Nc1cccc([S+](=O)([O-])NC(C)(C)C)c1 | 453 | 508 | 467
COC(=O)[C@H](Cc1ccccc1)NC(=O)[C@@H](N)CC(=O)O | 518 | 618 | 558
COc1ccc2c(c1)CC[C@@H](CN(C)CC(=O)O)[C@H]2c1ccccc1 | 487 | 514 | 464
Cc1c(Cl)cccc1[S+](=O)([O-])Nc1nc(CCN2CCOCC2=O)cs1 | 483 | 583 | 520
CCOC(=O)[C@H]1O[C@@H]1C(=O)N[C@@H](CC(C)C)C(=O)NCCC(C)C | 566 | 589 | 527
CC1(N)CCN(c2cnc(-c3cccc(Cl)c3Cl)c(N)n2)CC1 | 543 | 627 | 577
COc1cc2ncnc(Nc3cccc(Br)c3)c2cc1OC | 395 | 583 | 527
NNc1nncc2ccccc12 | 525 | 568 | 534
CC(C)N1C(=O)NC(=C/C1=O)\N[C@@H](C)C2=CC=CC=C2 | 471 | 552 | 497
O=P(O)(O)C(O)(Cc1cccnc1)P(=O)(O)[O][Na] (centres undefined) | 508 | 573 | 533
C[C@H]1COC/2=C1/C(=O)C(=O)C3=C4CCCC(C)(C)C4=CC=C23 | 525 | 601 | 540
CC1=C(CC(=O)O)c2cc(F)ccc2/C1=C\c1ccc([S+](C)[O-])cc1 (centres undefined) | 526 | 647 | 573
COC(=O)/C=C/C(=O)N(O)CCCCNCc1ccc(COC(=O)Nc2cccc3ccccc23)cc1 | 208 | 245 | 225
C[C@@H]1CC[C@@]2(OC1)OC1CC3C4CC=C5CC(O)CCC5(C)C4CCC3(C)C1[C@@H]2C (some centres undefined) | 470 | 527 | 465
COC1=C(NC2=NC=C(Cl)C(=N2)N[C@@H]3[C@H]\4C[C@@H](\C=C4)[C@H]3C(N)=O)C=CC5=C1CCC(CC5)N6CCOCC6 (some centres undefined) | 526 | 600 | 460
CCN(CC)CCCC(C)Nc1c2ccc(Cl)cc2nc2ccc(OC)cc12.Cl.Cl.O.O (centres undefined) | 402 | 561 | 556
Cc1ccccc1N1C(=O)c2cc([S+](N)(=O)[O-])c(Cl)cc2NC1C (centres undefined) | 495 | 599 | 512

Compound | area under concentration-response curve [1] | area under concentration-response curve [2] | area under concentration-response curve [3]
Cn1cc(-c2ccc(F)c(C(F)(F)F)c2)nc1C1CCN(c2ncnc3[nH]ncc23)CC1 | 471 | 555 | 510
COc1ccc2cccc(CCNC(C)=O)c2c1 | 515 | 589 | 579
NCC1(CC(=O)O)CCCCC1 | 315 | 403 | 412
CCCOc1ccc2[nH]c(NC(=O)OC)nc2c1 | 499 | 568 | 480
CCCNC(=O)c1cn2ncnc(Nc3cc(C(=O)NC4CC4)ccc3C)c2c1C | 539 | 654 | 583
Cc1c(C)c2c(c(C)c1O)CCC(C)(COc1ccc(CC3SC(=O)NC3=O)cc1)O2 (centres undefined) | 369 | 511 | 492
N/C(=N\OCC(O)CN1CCCCC1)c1cccnc1 (centres undefined) | 415 | 447 | 455
CCOP(=O)(OCC)C(C)NC(=O)N(CCCl)N=O (centres undefined) | 488 | 540 | 510
N[C@@H](Cc1cc(I)c(Oc2cc(I)c(O)c(I)c2)c(I)c1)C(=O)O | 548 | 620 | 564
CC(C(=O)O)c1ccc(-c2ccccc2)c(F)c1 (centres undefined) | 469 | 479 | 470
COc1cc(N2CCC(O)CC2)ccc1Nc1cc(Nc2ccccc2[S+](=O)([O-])C(C)C)c2cc[nH]c2n1 | 585 | 654 | 588
C\C1=C(\SSC1=S)C2=CN=CC=N2 | 524 | 618 | 569
O=C(O)c1ccccc1C(=O)Nc1ccc(-c2ccccc2)cc1 | 514 | 580 | 491
COc1ccc([C@@H]2CC(=O)c3c(O)cc(O[C@@H]4O[C@H](CO[C@@H]5O[C@@H](C)[C@H](O)[C@@H](O)[C@H]5O)[C@@H](O)[C@H](O)[C@H]4O)cc3O2)cc1O | 480 | 593 | 547
C[C@@H]1Cc2c([nH]c3ccccc23)[C@@H](c2c(F)cc(/C=C/C(=O)O)cc2F)N1CC(C)(C)F |  | 615 | 593
Cn1c(-c2ccccc2C(F)(F)F)nnc1C12CCC(c3noc(C4CC(F)(F)C4)n3)(CC1)CC2 |  | 594 | 546
O=C(O)CCNc1cc(N2CCc3ccccc3CC2)nc(-c2ccccn2)n1 |  | 486 | 490
CCC(=O)Nc1cccc(Oc2nc(Nc3ccc(N4CCN(C)CC4)cc3OC)ncc2Cl)c1 |  | 523 | 465
CNC(=O)c1ccc(N2C(=S)N(c3ccc(C#N)c(C(F)(F)F)c3)C(=O)C2(C)C)cc1F |  | 559 | 499
CN1C(=O)\C(=C/C2=C1N=C(NC3CCOCC3)N=C2)OC4=C(F)C=C(F)C=C4 |  | 611 | 565
NC(=O)c1ccc(N(C(N)=O)c2c(F)cccc2F)nc1-c1ccc(F)cc1F |  | 440 | 471
NC/1=N/C2=C(N=C[N]2[C@H]3C[C@H](O)[C@@H](CO)C3=C)C(=O)N1 |  | 589 | 521
C[S+](=O)([O-])c1ccc(-c2cnc(N)c(C(=O)Nc3ccccc3)n2)cc1 |  | 473 | 534
C=Cc1cc(O)cc2nc(-c3ccc(O)c(F)c3)oc12 |  | 587 | 550
Nc1nc(NCCNc2ncc(-n3ccnc3)c(-c3ccc(Cl)cc3Cl)n2)ccc1[N+](=O)[O-] |  | 485 | 536
